Legend:
[1] = biological target: T1, influenza hemagglutinin protein (Influenza A virus, UniProt P03452); test: LCMS/MS of hemagglutinin protein reacted with EGCG; settings: EGCG modified in the form of dihydro epigallocatechin (C15H11O6)
T1 construct: host or cells: human cells
Experimental: In addition, the hemagglutinin protein reacted with EGCG was analyzed through liquid chromatography mass spectrometry (LCMS/MS). The protein bands stained with Coomassie blue were separated by in-gel digestion, subjected to alkylation and de-staining processes, and then prepared into peptide fragments using trypsin. The prepared peptide fragments were analyzed using LCMS/MS [(Q-Exactive mass spectrometer (Thermo Fisher Scientific, Bremen, Germany) coupled with an Easy-nLC system (Thermo Fisher Scientific, Odense, Denmark)].

[2] = 37% formaldehyde; cited from earlier work

T1 sequence (P03452 18-565): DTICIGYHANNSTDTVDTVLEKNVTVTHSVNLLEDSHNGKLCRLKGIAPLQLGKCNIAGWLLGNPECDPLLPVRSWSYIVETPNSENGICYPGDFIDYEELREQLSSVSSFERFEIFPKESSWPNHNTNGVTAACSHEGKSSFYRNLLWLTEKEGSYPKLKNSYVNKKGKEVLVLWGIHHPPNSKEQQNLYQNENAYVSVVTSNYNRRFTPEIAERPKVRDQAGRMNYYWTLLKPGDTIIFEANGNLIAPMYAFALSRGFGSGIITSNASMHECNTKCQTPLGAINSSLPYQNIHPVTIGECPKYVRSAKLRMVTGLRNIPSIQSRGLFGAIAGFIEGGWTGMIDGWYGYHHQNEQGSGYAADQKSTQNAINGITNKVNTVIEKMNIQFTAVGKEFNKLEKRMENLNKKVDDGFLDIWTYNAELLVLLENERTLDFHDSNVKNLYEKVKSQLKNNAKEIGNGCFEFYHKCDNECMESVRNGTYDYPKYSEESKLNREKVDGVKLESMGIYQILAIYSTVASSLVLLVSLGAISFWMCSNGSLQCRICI

Molecule | binding site of EGCG on hemagglutinin (LCMS/MS) [1] | amount that can lead to death in adults [2]
(−)-epigallocatechin gallate [EGCG] | bound to the cysteine residue, which is the 152nd amino acid of the influenza hemagglutinin protein | 
C=O [formaldehyde] |  | 30 mL

Source: US20180177860A1, “VACCINE […] I[…] GREEN TEA EXTRACT, AND PREPARATION METHOD THEREFOR” (priority 2015, published 2018)
